Reference: PubChem BioAssay (NCI)
“And” between values parts separate entries of the source, which are not always exact repeats. Equal values may be shown once.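 Protocol summary: plate cells (96-well), add compound at 5 concentrations, incubate 48 h, interpolate endpoints linearly. The concentration for 50% growth inhibition is given as GI50. TGI marks complete inhibition of growth.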

Experiments:
Assay in all cases: inhibition of tumour cell growth, NCI panel, 48 h
SNB-19 CNS = test system: SNB-19 CNS
IGROV1 ovarian = test system: IGROV1 ovarian
SW-620 colon = test system: SW-620 colon
UO-31 renal = test system: UO-31 renal
PC-3 prostate = test system: PC-3 prostate
SF-268 CNS = test system: SF-268 CNS
SK-MEL-2 melanoma = test system: SK-MEL-2 melanoma
MDA-MB-231 breast = test system: MDA-MB-231 breast
NCI-H522 lung = test system: NCI-H522 lung
NCI-H23 lung = test system: NCI-H23 lung

SMILES | GI50 (SNB-19 CNS) | TGI (SNB-19 CNS) | GI50 (IGROV1 ovarian) | TGI (IGROV1 ovarian) | GI50 (SW-620 colon) | TGI (SW-620 colon) | GI50 (UO-31 renal) | TGI (UO-31 renal) | GI50 (PC-3 prostate) | TGI (PC-3 prostate) | GI50 (SF-268 CNS) | TGI (SF-268 CNS) | GI50 (SK-MEL-2 melanoma) | TGI (SK-MEL-2 melanoma) | GI50 (MDA-MB-231 breast) | TGI (MDA-MB-231 breast) | GI50 (NCI-H522 lung) | TGI (NCI-H522 lung) | GI50 (NCI-H23 lung) | TGI (NCI-H23 lung)
Nc1nccc2c1ncn2C1OC(CO)C(O)C1O (stereo not given) | > 100 µM | > 100 µM | 44.7 µM | > 100 µM | 92.4 µM | > 100 µM | 28.8 µM | > 100 µM | > 100 µM | > 100 µM | 83.4 µM | > 100 µM | > 100 µM | > 100 µM | > 100 µM | > 100 µM | > 100 µM | > 100 µM | > 100 µM | > 100 µM
OCC(CCc1c[nH]c2ccccc12)c1c[nH]c2ccccc12 (stereo not given) | – | 30.5 µM | – | 27.5 µM | – | 29.4 µM | – | 25.9 µM | – | 32.3 µM | – | 32.4 µM | – | 31.3 µM | – | 27.6 µM | – | 29.4 µM | – | 30 µM
NS(=O)(=O)c1ccc(-n2ncc3c(Nc4ccccc4)ncnc32)cc1 | > 100 µM | > 100 µM | – | – | 30.3 µM | > 100 µM | 23.9 µM | > 100 µM | 35.1 µM | > 100 µM | 43.1 µM | > 100 µM | 44.3 µM | > 100 µM | 15 µM | 87.1 µM | 51.1 µM | > 100 µM | 1.37 µM | 23.8 µM
O=C(N/N=C/c1ccc(Cl)cc1Cl)c1ccc2nc(-c3ccc(Cl)cc3)[nH]c2c1 | 2.34 µM | 5.06 µM | 1.5 µM | 2.98 µM | 1.83 µM | 3.69 µM | 1.58 µM | 2.99 µM | 1.55 µM | 3.3 µM | 2.08 µM | 4.35 µM | 2.09 µM | 4.64 µM | 1.85 µM | 3.77 µM | 2.24 µM | 5.85 µM | 1.93 µM | 4.43 µM
C[C@@H](COCCC(=O)N1CCN(c2ncc(C(F)(F)F)cn2)CC1)Nc1cn[nH]c(=O)c1C(F)(F)F | 34.2 µM | > 100 µM | 42.2 µM | > 100 µM | 3.84 µM | > 100 µM | 32.1 µM | > 100 µM | 45.4 µM | > 100 µM | 42.8 µM | > 100 µM | > 100 µM | > 100 µM | > 100 µM | > 100 µM | 96.9 µM | > 100 µM | 28.3 µM | > 100 µM
O=C1c2ccccc2-c2c1c1ccc([N+](=O)[O-])cc1c(=O)n2CCCNCCO | 0.107 µM | 1.82 µM | 0.515 µM | 2.45 µM | 0.0594 µM | 1.77 µM | 0.0989 µM | 1.06 µM | 0.0907 µM | 1.52 µM | 0.148 µM | 1.99 µM | 1.69 µM | 3.82 µM | 1.95 µM | 3.83 µM | 0.154 µM | 1.91 µM | 0.115 µM | 0.713 µM
Cc1ccc2nc(-c3ccc(N)c4ccccc34)[nH]c2c1 | 0.721 µM | > 44.7 µM | 0.424 µM | > 42.4 µM | – | 27.5 µM | 0.437 µM | 36.4 µM | 0.0706 µM | 22 µM | – | > 31.6 µM | 0.209 µM | 24.9 µM | 0.0899 µM | 13.3 µM | 0.0958 µM | 1.3 µM | 0.159 µM | 23.9 µM
Cc1nc2c(N3CCCC3)nc(N3CCNCC3)nc2nc1NCc1ccccc1 | – | 10.6 µM and 16.3 µM | 4.49 µM | 9.84 µM and 15.1 µM | 5.9 µM | 12.5 µM and 7.27 µM | 1.48 µM | 6.06 µM and 6.39 µM | – | 11 µM and 17 µM | 5.75 µM | 12.2 µM and 15.1 µM | 4.48 µM | 9.42 µM and 9.97 µM | 5.67 µM | 12.1 µM and 10.1 µM | 0.869 µM | 4.56 µM and 4.21 µM | 6.77 µM | 12.7 µM and 23.7 µM
N#Cc1nc2c(S(=O)(=O)c3ccccc3)c(N)n(Cc3ccc(Cl)cc3)c2nc1C#N | 13.8 µM | 41 µM | 9.65 µM | 42.3 µM | 17 µM | > 50 µM | – | – | 18.3 µM | > 50 µM | 9.14 µM | 37.6 µM | 32.6 µM | > 50 µM | 5.08 µM | 14.9 µM | 7.18 µM | > 50 µM | 6.46 µM | 38.6 µM
Cc1cc(N(CCCNc2ccnc3cc(Cl)ccc23)Cc2ccc3c(c2)OCO3)nc(N2CCCCC2)n1 | 3.47 µM | 15.1 µM | 1.58 µM | 3.87 µM | – | – | 1.25 µM | 2.82 µM | 2.1 µM | 5.38 µM | 2.33 µM | 6.21 µM | 1.94 µM | 3.77 µM | 1.88 µM | 4.06 µM | 1.89 µM | 4.19 µM | 2.67 µM | 13.3 µM
COc1cccc(N=N/C(=N\NC(=O)c2cc(Br)ccc2O)c2ccc(N(CCC#N)CCC#N)cc2OC)c1 | 68.9 µg/mL | > 150 µg/mL | 53.7 µg/mL | > 150 µg/mL | 63.1 µg/mL | > 150 µg/mL | 68 µg/mL | > 150 µg/mL | 49.5 µg/mL | > 150 µg/mL | 21.9 µg/mL | 122 µg/mL | 47.9 µg/mL | > 150 µg/mL | 71.9 µg/mL | > 150 µg/mL | 60.5 µg/mL | > 150 µg/mL | 68.5 µg/mL | > 150 µg/mL
COc1ccc(-c2cc(-c3cccc(NS(C)(=O)=O)c3)nc(N)c2C#N)cc1 | 0.158 µM | > 84 µM | 0.119 µM | > 34.8 µM | 0.048 µM | > 100 µM | 0.124 µM | > 43.7 µM | 0.0971 µM | 14.2 µM | 0.281 µM | 22 µM | 0.119 µM | 14.6 µM | 0.335 µM | 5.14 µM | 0.0164 µM | 1.25 µM | 0.256 µM | 39.8 µM
Clc1ccc(CNc2nccc(-c3cnn4ncccc34)n2)cc1 | 9.73 µM | > 25 µM | 6.72 µM | > 23.3 µM | 8.42 µM | > 25 µM | 6.75 µM | > 19.5 µM | 6.76 µM | > 24 µM | 7.25 µM | > 22.7 µM | 5.25 µM | 11.5 µM | 8.5 µM | > 25 µM | 5.85 µM | 19.3 µM | 6.74 µM | 22.8 µM
